Assay results published in article PMC7660103, “Discovery of Novel 3-Cyanopyridines as Survivin Modulators and Apoptosis Inducers” (Molecules, 2020).

Assays:
[1] = test system: prostate carcinoma (PC-3) cells; test: SRB cytotoxicity assay, PC-3; type: cell-based, human; conditions: for IC50: Homo sapiens, PC-3, SRB assay, 72 h, mean ± SD of three experiments; for Selectivity Index PC-3: SI = IC50 on WI-38/IC50 on PC-3
Description: (§1) In the present work, sulforhodamine B (SRB) colorimetric assay was done to evaluate the cytotoxic activity of the synthesized 3-cyano pyridines 4a–4e, 5a–5e, and 6a–6e on three human cancer cell lines: prostate carcinoma (PC-3), breast cancer (MDA-MB-231) and hepatocellular carcinoma (HepG2) cell lines. 5-FU was used as a standard drug for comparison.
(§2) Human cancer cells were obtained from Nawah Scientific Inc. (Mokatam, Cairo, Egypt). Cells were maintained in DMEM media containing […] streptomycin, 100 units/mL penicillin, and 10% heat-inactivated fetal bovine serum in humified, 5% (v/v) CO2 atmosphere at 37 °C.
(§3) Cell viability was estimated using the SRB assay. Aliquots of 100 µL cell suspension (5 × 10^3 cells) in 96-well plates were incubated in complete media for 24 h. Cells were treated with a second aliquot of 100 µL media containing various concentrations of the tested compounds (0.01, 0.1, 1, 10, and 100 μM). After 72 h, cells were fixed by replacing media with 15 µL of 10% TCA and then incubated at 4 °C for 1 h. After that, TCA solution was removed, and the cells were washed 5 times with distilled water. Aliquots of 70 µL SRB solution (0.4% w/v) were added and incubated in a dark place at room temperature for 10 min. Plates were washed 3 times with 1% acetic acid and allowed to air dry overnight. Then, 150 µL of TRIS (10 mM) was added to dissolve protein-bound SRB stain. The absorbance was measured at 540 nm using BMG LABTECH®-FLUO star Omega microplate reader (Ortenberg, Germany).

[2] = test system: breast cancer (MDA-MB-231) cells; test: SRB cytotoxicity assay, MDA-MB-231; type: cell-based, human; conditions: for IC50: Homo sapiens, MDA-MB-231, 72 h, SRB assay, 72 h, mean ± SD of three experiments; for Selectivity Index MDA-MB-231: SI = IC50 on WI-38/IC50 on MDA-MB-231
Description: as §1, §2, §3

[3] = test system: hepatocellular carcinoma (HepG2) cells; test: SRB cytotoxicity assay, HepG2; type: cell-based, human; conditions: for IC50: Homo sapiens, HepG2, 72 h, SRB assay, 72 h, mean ± SD of three experiments; for Selectivity Index HepG2: SI = IC50 on WI-38/IC50 on HepG2
Description: as §1, §2, §3

[4] = test system: normal cell line WI-38; test: SRB cytotoxicity assay, normal cell line WI-38; type: cell-based; conditions: Homo sapiens, WI-38, mean ± SD of three experiments
Description: The cytotoxicity of the newly synthesized compounds on the normal cell line WI-38 was also evaluated in order to examine the safety of these compounds.
as §3

[5] = test system: MDA-MB-231 cells; test: Annexin V-FITC/PI apoptosis assay; type: cell-based, human; conditions: for total increase in apoptotic and necrotic cells compared to control: MDA-MB-231, Annexin V-FITC; for Percent of cell death: Apoptosis Late / Percent of cell death: Necrosis / Percent of cell death: Apoptosis Early / Percent of cell death: Total: MDA-MB-231, IC50 concentration, 48 h; for Percent of cell death: Apoptosis Late: control 0.31; for Percent of cell death: Necrosis: control 0.47; for Percent of cell death: Apoptosis Early: control 1.09; for Percent of cell death: Total: control 1.87
Description: So, inhibiting survivin should result in increased spontaneous apoptosis in tumor cells. In this study, the apoptotic potential of 5c and 5e was further assessed using Annexin V-FITC assay.
MDA-MB-231 cells were plated in 24-well tissue culture plates. […] After 48 h, cells that floated were collected from the medium. The adherent cells were separated using 0.05% trypsin. After that, a 10% FBS medium was added for inactivating trypsin. Following slow pipetting, the centrifugation of cells was done for 5 min at 1500× g. Then, the supernatant was discarded, and cells were then stained with double annexin V-fluorescein isothiocyanate in addition to propidium iodide (PI) staining following the manufacturer’s directions. Analysis of the cells was investigated using a FACScan flow cytometer.

[6] = biological target: T1, survivin (Homo sapiens, UniProt O15392); test: Western blotting of survivin in MDA-MB-231 cells; type: cell-based; conditions: for survivin expression (Western blot, in words): MDA-MB-231, 1, 5 and 10 µM
T1 construct: Western blotting analysis in MDA-MB-231cells treated with different concentrations of both compounds; endogenous in cells; host or cells: MDA-MB-231
Description: (§4) The ability of the 2-oxo-3-cyano pyridines 5c and 5e to cause an inhibition of survivin was evaluated by the use of Western blotting analysis in MDA-MB-231cells treated with different concentrations of both compounds (1, 5, and 10 µM). […] Furthermore, to test the effect of these compounds on some other IAP family proteins, the Western plot of Livin, XIAP, and C-IAP1 proteins was performed (Figure 6). […] The Supplementary Material Figures S40 and S41 contain western blotting analysis for 5c and 5e.
(§5) MDA-MB-231 cancer cells were incubated with 5c and 5e at different concentrations (1, 5, and 10 µM) for 48 h. Afterwards, the medium was detached, and the cells were washed using PBS (10 mmol/L, pH 7.4). Then, the cells were incubated on cold lysis buffer (50 mmol/L Tris–HCl, 150 mmol/L NaCl, 1 mmol/L EGTA, 1 mmol/L EDTA, 20 mmol/L NaF, […], 0.5% NP40, 1% Triton X-100, 1 mmol/L PMSF (pH 7.4)) and a freshly added cocktail inhibitor (Inhibitor Cocktail Set III, Calbiochem, La Jolla, CA) above ice for 30 min. Then, MDA-MB-231 cells were collected and centrifuged at 12,000× g for 15 min.
(§6) XIAp, Survivin, Livin, and cIAP1anti-mouse, anti-rabbit secondary antibodies, and GAPDH were purchased from Sigma-Aldrich, whereas the gel was obtained from BioRad. Polyacrylamide gels were moved to a nitrocellulose membrane in order to block in buffer (7% nonfat dry milk/1% Tween 20; in 20 mmol/L TBS (pH 7.6)) for 1 h and incubated for 2 h at room temperature with the suitable primary antibody in blocking buffer or overnight at 4 °C; then, they were incubated with secondary antibody HRP conjugate. Finally, the blots analysis was done using the imaging system.

[7] = test system: XIAP; test: Western blotting of XIAP in MDA-MB-231 cells; type: cell-based, human; conditions: for XIAP protein level (Western blot, in words): MDA-MB-231, 1, 5 and 10 µM
Description: as §4, §5, §6

[8] = cytotoxicity compared with 5-FU

T1 sequence (O15392 whole entry): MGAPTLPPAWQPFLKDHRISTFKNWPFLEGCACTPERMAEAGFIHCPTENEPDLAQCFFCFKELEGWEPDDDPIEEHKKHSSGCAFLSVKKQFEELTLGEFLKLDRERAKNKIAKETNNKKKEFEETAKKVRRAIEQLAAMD

Structure (SMILES): N#Cc1c(-c2ccc(Cl)cc2)cc(-c2ccc(OCc3ccc(F)cc3)cc2)[nH]c1=O [Compound 5c, 4-(4-Chlorophenyl)-6-(4-((4-fluorobenzyl)oxy)phenyl)-2-oxo-1,2-dihydropyridine-3-carbonitrile]
- IC50 [1]: 14.4 ± 0.38 µM
- Selectivity Index PC-3 [1]: 6.33
- cytotoxicity relative to 5-FU ([1]; cell line not specified (PC-3, MDA-MB-231, HepG2 tested)): nearly half that of 5-FU
- IC50 [2]: 20 ± 0.17 µM
- Selectivity Index MDA-MB-231 [2]: 4.56
- IC50 [3]: 15 ± 0.64 µM
- Selectivity Index HepG2 [3]: 6.08
- IC50 [4]: 91.29 ± 0.47 µM
- total increase in apoptotic and necrotic cells compared to control [5]: 8.72 fold
- Percent of cell death: Apoptosis Late [5]: 8.67%
- Percent of cell death: Necrosis [5]: 2.58%
- Percent of cell death: Apoptosis Early [5]: 5.07%
- Percent of cell death: Total [5]: 16.32%
- Survivin band % ([6]; MDA-MB-231, 1µM): 38.3%
- Survivin band Area ([6]; MDA-MB-231, 1µM): 2261
- Survivin band Height ([6]; MDA-MB-231, 1µM): 156
- Survivin band Width ([6]; MDA-MB-231, 1µM): 26
- Survivin band % ([6]; MDA-MB-231, 5µM): 25.9%
- Survivin band Area ([6]; MDA-MB-231, 5µM): 1674
- Survivin band Height ([6]; MDA-MB-231, 5µM): 137
- Survivin band Width ([6]; MDA-MB-231, 5µM): 16
- Survivin band % ([6]; MDA-MB-231, 10µM): 15.6%
- Survivin band Area ([6]; MDA-MB-231, 10µM): 1028
- Survivin band Height ([6]; MDA-MB-231, 10µM): 121
- Survivin band Width ([6]; MDA-MB-231, 10µM): 13
- survivin expression (Western blot, in words) [6]: remarkable inhibition of survivin expression
- XIAP band % ([7]; MDA-MB-231, 1µM): 16.3%
- XIAP band Area ([7]; MDA-MB-231, 1µM): 970
- XIAP band Height ([7]; MDA-MB-231, 1µM): 99
- XIAP band Width ([7]; MDA-MB-231, 1µM): 22
- XIAP band % ([7]; MDA-MB-231, 5µM): 15.1%
- XIAP band Area ([7]; MDA-MB-231, 5µM): 921
- XIAP band Height ([7]; MDA-MB-231, 5µM): 88
- XIAP band Width ([7]; MDA-MB-231, 5µM): 19
- XIAP band % ([7]; MDA-MB-231, 10µM): 14.2%
- XIAP band Area ([7]; MDA-MB-231, 10µM): 853
- XIAP band Height ([7]; MDA-MB-231, 10µM): 82
- XIAP band Width ([7]; MDA-MB-231, 10µM): 19
- XIAP protein level (Western blot, in words) [7]: decreased the levels of these proteins

Structure (SMILES): COc1ccc(-c2cc(-c3ccc(OCc4ccc(F)cc4)cc3)[nH]c(=O)c2C#N)cc1 [Compound 5e, 6-(4-((4-Fluorobenzyl)oxy)phenyl)-4-(4-methoxyphenyl)-2-oxo-1,2-dihydropyridine-3-carbonitrile]
- IC50 [1]: 4.46 ± 0.51 µM
- Selectivity Index PC-3 [1]: 22.99
- activity relative to 5-FU, PC-3 [1, 8]: twice the activity of 5-FU
- IC50 [2]: 3.59 ± 0.42 µM
- Selectivity Index MDA-MB-231 [2]: 28.57
- activity relative to 5-FU, MDA-MB-231 [2, 8]: 2.6 fold
- IC50 [3]: 6.01 ± 0.53 µM
- Selectivity Index HepG2 [3]: 17.06
- activity relative to 5-FU, HepG2 [3, 8]: comparable to 5-FU
- IC50 [4]: 102.6 ± 0.81 µM
- total increase in apoptotic and necrotic cells compared to control [5]: 10.41 fold
- Percent of cell death: Apoptosis Late [5]: 10.91%
- Percent of cell death: Necrosis [5]: 2.38%
- Percent of cell death: Apoptosis Early [5]: 6.18%
- Percent of cell death: Total [5]: 19.47%
- Survivin band % ([6]; MDA-MB-231, 1µM): 31.4%
- Survivin band Area ([6]; MDA-MB-231, 1µM): 1368
- Survivin band Height ([6]; MDA-MB-231, 1µM): 120
- Survivin band Width ([6]; MDA-MB-231, 1µM): 22
- Survivin band % ([6]; MDA-MB-231, 5µM): 25%
- Survivin band Area ([6]; MDA-MB-231, 5µM): 1079
- Survivin band Height ([6]; MDA-MB-231, 5µM): 108
- Survivin band Width ([6]; MDA-MB-231, 5µM): 19
- Survivin band % ([6]; MDA-MB-231, 10µM): 19.1%
- Survivin band Area ([6]; MDA-MB-231, 10µM): 1062
- Survivin band Height ([6]; MDA-MB-231, 10µM): 105
- Survivin band Width ([6]; MDA-MB-231, 10µM): 18
- survivin expression (Western blot, in words) [6]: remarkable inhibition of survivin expression
- XIAP band % ([7]; MDA-MB-231, 1µM): 15.4%
- XIAP band Area ([7]; MDA-MB-231, 1µM): 841
- XIAP band Height ([7]; MDA-MB-231, 1µM): 80
- XIAP band Width ([7]; MDA-MB-231, 1µM): 22
- XIAP band % ([7]; MDA-MB-231, 5µM): 8.6%
- XIAP band Area ([7]; MDA-MB-231, 5µM): 287
- XIAP band Height ([7]; MDA-MB-231, 5µM): 41
- XIAP band Width ([7]; MDA-MB-231, 5µM): 17
- XIAP band % ([7]; MDA-MB-231, 10µM): 4.7%
- XIAP band Area ([7]; MDA-MB-231, 10µM): 260
- XIAP band Height ([7]; MDA-MB-231, 10µM): 28
- XIAP band Width ([7]; MDA-MB-231, 10µM): 13
- XIAP protein level (Western blot, in words) [7]: decreased the levels of these proteins
